Laboratory results as given in patent US20150072888A1, “Biomarkers For Diagnosis Of Diabetes And Monitoring Of Anti-Diabetic Therapy” (Sumitomo Bakelite Co., Ltd., priority 2012, published 2015).

Columns and labels:
[1] = system: db/db mice; assay: Plasma N-glycan profile (GLYCANMAP, MALDI-TOF MS) of db/db mice treated with rosiglitazone, initial study (Table 1 summarises both rosiglitazone studies); type: in vivo, mouse; conditions: first rosiglitazone study, db/db mice vs vehicle
Procedure: A 10 μl aliquot of each plasma sample was spiked with internal standard (700 pmol) and analyzed for N-linked glycans using Ezose Sciences' GLYCANMAP methodology. The samples were denatured and then digested with trypsin, followed by heat-inactivation. The mixture was then treated with PNGase F. After enzymatic release of N-glycans, aliquots were subjected to solid-phase processing using BLOTGLYCO beads. Following capture on the beads, the sialic acid residues were methyl esterified. The glycans were simultaneously released from the beads and labeled, and then aliquots of the recovered materials were spotted onto a MALDI target plate. […]
Rosigilitazone is a member of the athiazolidinedione class of anti-diabetic drugs, and is marketed by Glaxo under the trade name AVANDIA. […] A baseline (Day 0) sample was not analyzed in the initial rosiglitazone study, but was included in a subsequent rosiglitazone confirmatory study. […]
Several criteria were used in the initial rosiglitazone study to select the most promising biomarkers. Statistical significance was evaluated based on the Mann-Whitney test or Student's t-test and changes considered significant if the resulting p-value was less than 0.05. […] After the confirmatory rosiglitazone study, one glycan (530010) that had been excluded in the initial study was re-evaluated. […]

[2] = system: db/db mice; assay: Plasma N-glycan profile of db/db mice treated with insulin detemir; type: in vivo, mouse; conditions: for Direction of change of hybrid glycan 430010 / Direction of change of hybrid glycan 530010 / Direction of change of hybrid glycan 630010: days 7, 14, 21, significant as early as Day 7; for Direction of change of high mannose glycan 520000 (Man5GlcNAc2) / Direction of change of high mannose glycan 620000 (Man6GlcNAc2) / Direction of change of high mannose glycan 720000 (Man7GlcNAc2) / Direction of change of high mannose glycan 820000 (Man8GlcNAc2): significant at Day 7, 14 and 21
Procedure: A 10 μl aliquot of each plasma sample was spiked with internal standard (700 pmol) and analyzed for N-linked glycans using Ezose Sciences' GLYCANMAP methodology. The samples were denatured and then digested with trypsin, followed by heat-inactivation. The mixture was then treated with PNGase F. After enzymatic release of N-glycans, aliquots were subjected to solid-phase processing using BLOTGLYCO beads. Following capture on the beads, the sialic acid residues were methyl esterified. The glycans were simultaneously released from the beads and labeled, and then aliquots of the recovered materials were spotted onto a MALDI target plate. Steps from initial aliquoting to spotting on the MALDI plate were performed using the fully automated SWEETBLOT technology. MALDI-TOF MS analysis was performed on an ultraflex III mass spectrometer (Bruker Daltonics) in the positive-ion, reflector mode. Each sample from the BLOTGLYCO bead processing step was spotted in quadruplicate, and spectra were obtained in an automated manner using the AutoXecute feature in flexControl software (Bruker Daltonics). Proposed glycan structures were assigned based on molecular weight. These methods have been described previously by Nishimura, Furukawa and Miura (Nishimura et al., Angew Chem. Int. Ed. Engl., 44: 91-96 (2004); Furukawa et al., Anal. Chem., 80: 1094-1101 (2008); Miura et al., Chem.-A Eur. J, 13: 4797-4804 (2007)). Alternatively, standard fluorescent HPLC or capillary electrophoresis methods with 2-AA, 2-AB, or APTS labeling can be used to monitor the glycan levels and changes in glycan patterns.
A further study was undertaken to evaluate the performance of candidate biomarkers discovered using rosiglitazone in mice treated with a diabetes drug having a different mechanism of action. The candidate biomarkers that were identified in Example 1 were evaluated in db/db mice treated with insulin detemir and vehicle.
Plasma samples were analyzed from ten db/db mice at baseline (0 days) and from 20 db/db mice (ten vehicle and ten insulin detemir-treated) at 7, 14, and 21 days. Sample preparation and analysis followed the protocol described in Example 1.
Concentrations of individual glycans in insulin detemir- and vehicle-treated db/db mice were compared at each time-point using the Student's t-test. N-glycans which yielded p-values<0.05 in this analysis were considered significant. Time-dependence was also evaluated for each of the candidate biomarkers by comparing each time-point to baseline.

[3] = db/db mice plasma vs vehicle, listed as Insulin Detemir

Compound: CN(CCOc1ccc(CC2SC(=O)NC2=O)cc1)c1ccccn1 (centres unmarked) [rosiglitazone]
- Time until highly significant difference (p<0.001) was achieved for HbA1c [1]: 21 days

Compound: insulin detemir
- Changes in HbA1c compared with rosiglitazone ([2]; db/db mice): more subtle changes
- Magnitude of changes in high-mannose glycans compared with rosiglitazone ([2]; db/db mice plasma): lower in magnitude
- Changes in Glycan 540020 ([2]; db/db mice plasma vs vehicle): no significant changes
- Changes in O-acetylated N-glycans ([2]; db/db mice plasma vs vehicle): no significant changes
- Changes in fucosylated N-glycans ([2]; db/db mice plasma vs vehicle): no significant changes
- Direction of change of hybrid glycan 430010 ([2]; db/db mice plasma vs vehicle): significant decreases
- Direction of change of hybrid glycan 530010 ([2]; db/db mice plasma vs vehicle): significant decreases
- Direction of change of hybrid glycan 630010 ([2]; db/db mice plasma vs vehicle): significant decreases
- Direction of change of hybrid glycan 430010 [2, 3]: Decreased
- Direction of change of hybrid glycan 530010 [2, 3]: Decreased
- Direction of change of hybrid glycan 630010 [2, 3]: Decreased
- Direction of change of high mannose glycan 520000 (Man5GlcNAc2) ([2]; db/db mice plasma vs vehicle): lower levels
- Direction of change of high mannose glycan 620000 (Man6GlcNAc2) ([2]; db/db mice plasma vs vehicle): lower levels
- Direction of change of high mannose glycan 720000 (Man7GlcNAc2) ([2]; db/db mice plasma vs vehicle): lower levels
- Direction of change of high mannose glycan 820000 (Man8GlcNAc2) ([2]; db/db mice plasma vs vehicle): lower levels
- Direction of change of high mannose glycan 520000 (Man5GlcNAc2) [2, 3]: Decreased
- Direction of change of high mannose glycan 620000 (Man6GlcNAc2) [2, 3]: Decreased
- Direction of change of high mannose glycan 720000 (Man7GlcNAc2) [2, 3]: Decreased
- Direction of change of high mannose glycan 820000 (Man8GlcNAc2) [2, 3]: Decreased
